Assay results taken from patent EP0094833A2, “Novel 1,2-benzisoxazole derivatives” (Dainippon Pharmaceutical Co., Ltd., priority 1982, dated 1983).
≈ marks a conversion by molar mass, not a printed value. Where a name gives a salt, the structure may show the parent alone. Read-outs that look alike come from different tables or passages of the source.

Tests used:
[1] = test system: ileum; experiment: Inhibitory effect on contractile response induced by acetylcholine (Anti-ACh), isolated ileum; format: cell-based, guinea pig; details: Cavia porcellus, read-out: Anti-ACh (IC50 : g/ml)
[2] = test system: guinea pig taenia-coli; experiment: Inhibitory effect on contractile response induced by potassium chloride (Anti-KCl), isolated taenia-coli; format: cell-based; details: Cavia porcellus, read-out: IC50 (g/ml) Anti-KCl
Protocol: Experiment 2 Inhibitory effect on contractile response induced by potassium chloride (Anti-KC1) In the same manner as described in the above Experiment 1, isolated guinea pig taenia-coli about 3 cm in length was prepared, and mounted in Tyrode's solution. The contractile response was measured with an isometric transducer and recorded on recticorder. Each preparation was adjusted to a tension of .lg and allowed to equilibrate for 30 minutes before measuring the effects of the test compounds. Test compounds were applied to 5 minutes before adding potassium chloride (40 mM). Each Compound was tested in 2 - 3 concentrations.

[3] = test system: spontaneous gastric motility; experiment: Inhibitory effect on spontaneous gastric motility (Anti-SGM) in conscious rabbits; format: in vivo, male Albino strain rabbits; details: Rabbit, 100 mg/kg po, maximum percent inhibition of initial spontaneous motility
Protocol: (§1) Experiment 3 Inhibitory effect on spontaneous gastric motility (Anti-SGM)
(§2) This effect was examined using male Wistar strain rats or male Albino strain rabbits, with chronically implanted strain gauge force transducer. The rats or rabbits were allowed to stand for 3 - 5 days for recovery from the surgery and fasted for 18 hours before experiment. Then, spontaneous gastric motility in conscious rats or rabbits was recorded and the sum of amplitude of each contraction was calculated every 15 minutes. Inhibitory effect of test compound by oral administration was expressed as a maximum percent inhibition of initial spontaneous motility.

[4] = test system: spontaneous gastric motility; experiment: Inhibitory effect on spontaneous gastric motility (Anti-SGM) in conscious rats; format: in vivo, male Wistar strain rats; details: Rat, maximum percent inhibition of initial spontaneous motility
Protocol: as §1, §2

[5] = guinea pig ileum, acetylcholine 2 X 10^-8 g/ml, test compound applied 2 minutes before
[6] = guinea pig taenia-coli, potassium chloride 40 mM, test compound applied 5 minutes before

C[N+]1(C)CCC(OC(=O)C(c2noc3ccc(Cl)cc23)C2CCCCC2)CC1 (racemic) [Example 35]
IC50 [1, 5]: 0.057 µg/mL

CC[N+](C)(CC)CCOC(=O)C(c1noc2ccccc12)C1CCCCC1 (racemic) [Example 34]
IC50 [1, 5]: 0.026 µg/mL

CC[N+](C)(CC)CCCOC(=O)C(c1noc2ccccc12)C1CCCCC1 (stereo not shown) [Example 32]
IC50 [1, 5]: 0.21 µg/mL

CC[N+]1(C)CCC(OC(=O)C(c2noc3ccccc23)C2CCCCC2)CC1.[Br-] (stereo not shown) [Example 31, 1-Ethyl-1-methyl-4-[2-(1,2-benzisoxazol-3-yl)-2-cyclohexylacetoxy]piperidinium bromide]
IC50 [1, 5]: 0.014 µg/mL

CCN(CC)CC(C)OC(=O)C(c1noc2ccccc12)C1CCCCC1 (stereo not shown) [Example 4]
IC50 [1, 5]: 0.42 µg/mL (≈ 1.13 µM)
IC50 [2, 6]: 1.6 µg/mL (≈ 4.3 µM)

CCN(CC)CCOC(=O)C(c1noc2ccc(Cl)cc12)C1CCCCC1 (stereo not shown) [Example 10]
IC50 [1, 5]: 0.87 µg/mL (≈ 2.21 µM)
IC50 [2, 6]: 3.3 µg/mL (≈ 8.4 µM)

CCN(CC)CC(C)OC(=O)C1CCCCC1(O)C1CCCCC1 (stereo not shown) [Rociverine, reference compound]
IC50 [1, 5]: 1.1 µg/mL (≈ 3.24 µM)
IC50 [2, 6]: 5.4 µg/mL (≈ 15.9 µM)

C[N+]1(C)CCC(OC(=O)C(c2noc3ccccc23)C2CCCCC2)CC1 (stereo not shown) [Example 33]
IC50 [1, 5]: 0.013 µg/mL

CCCC[N+]1(C)C2CC(OC(=O)C(CO)c3ccccc3)CC1C1OC12 (stereo not shown) [Scopolamine-N-butyl bromide, reference compound]
IC50 [1, 5]: 0.089 µg/mL

COc1ccc(Cc2nccc3cc(OC)c(OC)cc23)cc1OC [Papaverine hydrochloride, reference compound]
IC50 [1]: 13 µg/mL
IC50 [2]: 1.3 µg/mL

O=C(OCCN1CCCCC1)C(c1noc2ccccc12)C1CCCCC1 (stereo not shown) [Example 9]
IC50 [1, 5]: 0.41 µg/mL (≈ 1.11 µM)
IC50 [2, 6]: 2.7 µg/mL (≈ 7.29 µM)

CCN(CC)CCCCOC(=O)C(c1noc2ccccc12)C1CCCCC1 (stereo not shown) [Example 8]
IC50 [1, 5]: 0.48 µg/mL (≈ 1.24 µM)

CN1CCC(OC(=O)C(Cc2ccccc2)(Cc2ccccc2)c2noc3ccccc23)CC1 [Example 28]
IC50 [1, 5]: 0.65 µg/mL (≈ 1.43 µM)
IC50 [2, 6]: 0.56 µg/mL (≈ 1.23 µM)

Br.CCN(CC)CCCOC(=O)C(c1noc2ccccc12)C1CCCCC1 (stereo not drawn) [Example 1, 3-Diethylaminopropyl α-cyclohexyl-1,2-benzisoxazole-3-acetate hydrobromide]
IC50 [1, 5]: 0.16 µg/mL
IC50 [2, 6]: 0.85 µg/mL
Inhibition (%) [3]: 52%
Inhibition (%) ([4]; 100 mg/kg po): 36%
Inhibition (%) ([4]; 200 mg/kg po): 49%

CN1CCC(OC(=O)C(c2noc3ccc(Cl)cc23)C2CCCCC2)CC1.O=C(O)C(=O)O (stereo not drawn) [Example 2, 1-Methyl-4-piperidyl α-cyclohexyl-5-chloro-1,2-benzisoxazole-3-acetate oxalate]
IC50 [1, 5]: 0.34 µg/mL
IC50 [2, 6]: 3.2 µg/mL

O=C(OCCN1CCCC1)C(Cc1ccccc1)(Cc1ccccc1)c1noc2ccccc12 [Example 29]
IC50 [1, 5]: 0.96 µg/mL (≈ 2.11 µM)

CCN(CC)CCCC(C)OC(=O)C(c1noc2ccccc12)C1CCCCC1 (stereo not shown) [Example 7]
IC50 [1, 5]: 0.69 µg/mL (≈ 1.72 µM)

CN1CCC(OC(=O)C(c2noc3ccccc23)C2CCCCC2)CC1 (stereo not shown) [Example 5]
IC50 [1, 5]: 0.037 µg/mL (≈ 0.104 µM)

CCN(CC)CCOC(=O)C(c1noc2ccccc12)C1CCCCC1 (stereo not shown) [Example 3]
IC50 [1, 5]: 0.12 µg/mL (≈ 0.335 µM)
IC50 [2, 6]: 1 µg/mL (≈ 2.79 µM)
